Legend:
[1] = test system: C666-1-GFP-Luc2 xenograft; assay: In vivo efficacy in C666-1-GFP-Luc2 xenograft model; design: species or system NOD scid gamma female mice
Excerpt: Next, we assessed the anticancer efficacy of the Cu(II) complex on another NPC xenograft, the EBV positive C666-1-GFP-Luc2 cells. […] Two mice in this group completed the 14 doses but died on the last day of the experiment while one mouse died on day 13 after receiving 12 doses of the Cu(II) complex. […] Harvested major organs sections stained with hematoxylin and eosin dyes were also examined. […] Therefore, no toxicity was found in mice carrying nasopharyngeal C666-1-GFP-Luc2 when treated with Cu(II) complexes at the doses of 4 mg/kg and 5 mg/kg. The underlying cause of death, presumed to be due to toxicity at the dose of 6 mg/kg, could not be ascertained conclusively because although the liver size was smaller in the treated group, the histopathology of the liver appeared normal and no other abnormalities were detected other than lower spleen size.
2.0 x 10^6 HK1 or C666-1-GFP-Luc2 cells in 100 μl RPMI media mixed with matrigel (BD Matrigel Basement Membrane Matrix; BD Biosciences, Bedford, MA, USA) was inoculated subcutaneously into the right lower flank of the NSG mice. Tumor growth was monitored and measured every other day using a digital caliper (Mitutoyo America Corporation, Aurora, Illinois, USA) until they reached 100–250 mm^3. Then, the mice were randomly assigned into treatment groups. The mice bearing HK1 xenograft tumor were divided into 3 treatment groups and a control (normal saline) group. The first batch received normal saline (one injection daily for 5 days), 6 mg/kg (one injection daily for 5 days) and 8 mg/kg (one injection every other day for 3 doses) of Cu(II) complex while the second batch received normal saline (one injection daily for 4 days), 4 mg/kg (one injection daily for 4 days), 6 mg/kg (one injection daily for 4 days) and 8 mg/kg (one injection every other day for 2 doses) of Cu(II) complex via intraperitoneal route.
Subsequently, for the efficacy assay using mice bearing C666-1-GFP-Luc2 cells, 3 sets of control group versus experimental group were tested in three independent experiments. Mice were randomly assigned into 4, 5 or 6 mg/kg Cu(II) complex and their control groups respectively. Injections were given once daily for 12 to 18 days. Body weight change, food intake, signs of toxicity/morbidity as well as mortality were observed and recorded daily for the duration of the entire experiment. Tumor volumes were determined using a caliper thrice weekly. Tumor volumes were calculated according to the following formula: Tumor volume (mm^3) = (length [mm] X width^2 [mm^2])/2. At the end point of the studies, mice were placed under anesthesia for blood collection via submandibular and cardiac puncture before they were sacrificed for histopathological investigations. Tumors were harvested, imaged, weighed and fixed in formalin.
All H&E-stained tissue section slides were examined under Nikon Eclipse Ni microscope (Nikon Instruments Inc., New York, USA) and microscopic images were taken using 20x and 40x objectives. For H&E tumor section slides, the percentage of tumor necrosis was determined qualitatively using microscope by the histopathologist in order to estimate the percentage of necrotic area induced by the Cu(II) complex in the tumors. For determination of femoral bone marrow suppression, low power (10x magnification) objective was used to scan the slides while 100x magnification to assess the degree of cellularity and amount of fat present.
Firstly, 4 ml of rhodamine stock solution was combined with 46 ml of acetate buffer solution in order to prepare a working rhodamine solution. Tissue sections were prepared, deparaffinized and hydrated in distilled water. Then, a loosely capped staining jar containing working rhodamine was warmed in the microwave oven (Panasonic Corporation, Osaka, Japan). The slide with tissue section was placed in warmed working rhodamine solution and reheated using microwave oven. […]

rat primary hepatocytes = assay: Cytotoxicity in rat primary hepatocytes (resazurin); settings: 72 h
CYP3A = assay: Cytochrome P450 induction assay in rat primary hepatocytes, CYP3A; settings: for Fold induction CYP3A: 3 days; for % of positive control CYP3A: positive control dexamethasone 30 μM
Description: Assessment for potential drug-drug interaction is an important component of drug discovery and development. […] Most drug-drug interaction and drug metabolism occur in the hepatic cytochrome P450 (CYP) system. CYP is a superfamily of metabolizing enzymes located primarily in hepatocytes. Inhibition or induction of CYP enzymes is a mechanism for drug-drug interaction. In the current work, the inhibition and induction of CYP enzymes were investigated. CYP induction assay was performed using rat primary hepatocytes for CYP […] isoforms with dexamethasone (30 μM) and 3-methyl cholanthrene (1.0 μM) as […], respectively. Cytochrome CYP 3A enzymes are considered to be the most important enzymes catalyzing drug metabolism with broad substrate specificity while CYP 1A enzymes play key roles in the metabolic activation of aromatic hydrocarbons to carcinogenic metabolites. In orally administered anticancer drug, gut wall CYP 3A enzyme is considered important for drug-drug interactions and xenobiotic interactions.
5.0 x 10^5 viable rat hepatocytes were seeded into collagen-coated 24 well plate in 500 μL William’s medium E (Sigma Aldrich) per well and they were incubated at 37°C in a 5% CO2 humidified incubator. After an overnight incubation, the medium in each designated well was replaced with 500 μL of fresh medium containing the specified concentration of Cu(II) complex (1.0, 0.3 and 0.1 μM), dexamethasone (30 μM), 3-methyl cholanthrene (1.0 μM) as reference standards (positive controls) or fresh medium alone (vehicle control). The cells were treated for 3 consecutive days with daily replacement of fresh medium containing compounds. After incubation, the cells were washed with 1X HBSS and the medium was replaced with 300 μL of probe substrates (Midazolam at 10 μM and Phenacetin at 100 μM; prepared in HBSS). The cells were then incubated for a further 20 min at 37°C with mild shaking. The reaction was terminated by adding 600 μL of cold acetonitrile followed by scraping of cells. The above mixture in each well was transferred to a tube, and these tubes were centrifuged at 10,000 rpm for 10 min. The concentration/level of metabolites in the supernatant was monitored by LC-MS/MS.
The extent of fold induction as well as percent of positive control was calculated relative to basal control (untreated) by using the following formula.
%Activity=(averagearearatiooftreated/averagearearatioofbasalcontrol)x100
Foldinduction=%activity/100%ofpositivecontrol=foldinduction(Cu(II)treated)/foldinduction(referencestandardtreated)x100

CYP 2C9 = target: T1, CYP 2C9 (Homo sapiens, UniProt P11712); assay: CYP450 inhibition assay, pooled human liver microsomes; assay type: in vitro ADME; settings: probe tolbutamide
T1 construct: Pooled human liver microsomes (Sekisui Xeno Tech, LLC., Kansas City, KS, USA) were incubated; tissue Sekisui Xeno Tech, LLC; host or cells: pooled human liver microsomes
T1 sequence (P11712 whole entry): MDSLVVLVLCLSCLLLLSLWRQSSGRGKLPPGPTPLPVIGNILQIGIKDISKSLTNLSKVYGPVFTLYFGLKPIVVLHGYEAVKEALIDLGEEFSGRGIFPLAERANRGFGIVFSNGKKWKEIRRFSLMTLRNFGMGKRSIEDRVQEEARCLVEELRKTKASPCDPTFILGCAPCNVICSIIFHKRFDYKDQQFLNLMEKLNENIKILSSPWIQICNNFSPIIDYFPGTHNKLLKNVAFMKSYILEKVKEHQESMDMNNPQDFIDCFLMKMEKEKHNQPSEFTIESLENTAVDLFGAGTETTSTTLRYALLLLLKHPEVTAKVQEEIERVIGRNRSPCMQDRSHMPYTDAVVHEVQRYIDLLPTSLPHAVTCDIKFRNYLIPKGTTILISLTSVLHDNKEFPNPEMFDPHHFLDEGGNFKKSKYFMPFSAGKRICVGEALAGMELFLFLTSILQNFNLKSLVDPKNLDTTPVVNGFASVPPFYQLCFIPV

CC(C)(N)C(=O)[O-].O.O=[N+]([O-])[O-].[Cu+2].c1cnc2c(c1)ccc1cccnc12 [Cu(II) complex, [Cu(phen)(C-dmg)(H2O)]NO3]
tumor growth ([1]; 4 mg/kg ip daily, 18 days): not effective | survival throughout the experiment ([1]; 6 mg/kg ip daily): only one mouse out of four | Copper staining of liver sections ([1]; 4, 5 and 6 mg/kg): negative for copper deposits | body weight ([1]; 4, 5 and 6 mg/kg): little influence | weight of vital organs ([1]; 4, 5 and 6 mg/kg, except for liver in the 6 mg/kg group): no significant differences | tolerability ([1]; 4 and 5 mg/kg dose regimens): well tolerated | tumor growth ([1]; 5 and 6 mg/kg ip daily): significant tumor growth inhibition | Histopathological examination of heart, liver, kidney and lung ([1]; all the groups): did not show any obvious abnormal changes | necrotic area in the tumor xenografts ([1]; treated groups vs control groups, concentration dependent): higher percentage of necrotic area | concentrations at which cytotoxicity is exhibited (rat primary hepatocytes): over 3 μM | IC50 (rat primary hepatocytes; read-out: IC50 (cytotoxic concentration that kills 50% of the cells), resazurin assay): 4.7 µM | Fold induction CYP3A (CYP3A; 0.1 μM): 1.3 | % of positive control CYP3A (CYP3A; 0.1 μM): 4.7% | Fold induction CYP3A (CYP3A; 0.3 μM): 1.2 | % of positive control CYP3A (CYP3A; 0.3 μM): 4.3% | Fold induction CYP3A (CYP3A; 1.0 μM): 0.8 | Cell death observed (CYP3A; 1.0 μM, rat hepatocytes in the induction assay): ** Cell death observed (approximately 30%). | % of positive control CYP3A (CYP3A; 1.0 μM): 3.0% | induction, % of positive control, CYP3A (CYP3A; 0.1-1.0 μM): < 13% | IC50 (CYP 2C9): 8.56 µM

Source: publication PMC5766233, “Ternary copper(II) complex: NCI60 screening, toxicity studies, and evaluation of efficacy in xenograft models of nasopharyngeal carcinoma” (PLoS ONE, 2018)
